Patent publication US9650340B2, “5-fluoro-N-(pyridin-2-yl)pyridin-2-amine derivatives containing a sulfoximine group” (BAYER PHARMA AKTIENGESELLSCHAFT, priority 2012, dated 2017)
Like-named read-outs stand apart in the source and are kept apart here.

Columns and labels:
[1] = molecular target: T1, CDK2/CycE (Homo sapiens, UniProt P24941); test: CDK2/CycE kinase assay (TR-FRET, 10 μM ATP); assay type: biochemical; details: Method 2 (2a)
T1 construct: GST; purchased ProQinase GmbH (Freiburg, Germany); host or cells: insect cells (Sf9)
From the text: 2a. CDK2/CycE Kinase Assay:
CDK2/CycE-inhibitory activity of compounds of the present invention was quantified employing the CDK2/CycE TR-FRET assay as described in the following paragraphs:
Recombinant fusion proteins of GST and human CDK2 and of GST and human CycE, expressed in insect cells (Sf9) and purified by Glutathion-Sepharose affinity chromatography, were purchased from ProQinase GmbH (Freiburg, Germany). As substrate for the kinase reaction biotinylated peptide biotin-Ttds-[…] (C-terminus in amid form) was used which can be purchased e.g. form the company JERINI Peptide Technologies (Berlin, Germany).
For the assay 50 nl of a 100 fold concentrated solution of the test compound in DMSO was pipetted into a black low volume 384 well microtiter plate (Greiner Bio-One, Frickenhausen, Germany), 2 μl of a solution of CDK2/CycE in aqueous assay buffer [50 mM Tris/HCl pH 8.0, 10 mM MgCl2, 1.0 mM dithiothreitol, 0.1 mM sodium ortho-vanadate, 0.01% (v/v) Nonidet-P40 (Sigma)] were added and the mixture was incubated for 15 min at 22° C. to allow pre-binding of the test compounds to the enzyme before the start of the kinase reaction. Then the kinase reaction was started by the addition of 3 μl of a solution of adenosine-tri-phosphate (ATP, 16.7 μM=>final conc. in the 5 μl assay volume is 10 μM) and substrate (1.25 μM=>final conc. in the 5 μl assay volume is 0.75 μM) in assay buffer and the resulting mixture was incubated for a reaction time of 25 min at 22° C. The concentration of CDK2/CycE was adjusted depending of the activity of the enzyme lot and was chosen appropriate to have the assay in the linear range, typical concentrations were in the range of 130 ng/mL The reaction was stopped by the addition of 5 μl of a solution of TR-FRET detection reagents (0.2 μM streptavidine-XL665 [Cisbio Bioassays, Codolet, France] and 1 nM anti-RB(pSer807/pSer811)-antibody from BD Pharmingen [#558389] and 1.2 nM LANCE EU-W1024 labeled anti-mouse IgG antibody [Perkin-Elmer, product no. AD0077]) in an aqueous EDTA-solution (100 mM EDTA, 0.2% (w/v) bovine serum albumin in 100 mM HEPES/NaOH pH 7.0).
The resulting mixture was incubated 1 h at 22° C. to allow the formation of complex between the phosphorylated biotinylated peptide and the detection reagents. Subsequently the amount of phosphorylated substrate was evaluated by measurement of the resonance energy transfer from the Eu-chelate to the streptavidine-XL. Therefore, the fluorescence emissions at 620 nm and 665 nm after excitation at 350 nm was measured in a TR-FRET reader, e.g. a Rubystar (BMG Labtechnologies, Offenburg, Germany) or a Viewlux (Perkin-Elmer). The ratio of the emissions at 665 nm and at 622 nm was taken as the measure for the amount of phosphorylated substrate.

[2] = system: HeLa, human cervical tumour cells; test: Proliferation assay, HeLa (crystal violet); assay type: cell-based; details: 4 days, read-out: Inhibition of HeLa cell proliferation IC50
Method: (§1) Cultivated tumour cells (HeLa, human cervical tumour cells, ATCC CCL-2; NCI-H460, human non-small cell lung carcinoma cells, ATCC HTB-177; A2780, human ovarian carcinoma cells, ECACC #93112519; DU 145, hormone-independent human prostate carcinoma cells, ATCC HTB-81; HeLa-MaTu-ADR, multidrug-resistant human cervical carcinoma cells, EPO-GmbH Berlin; Caco-2, human colorectal carcinoma cells, ATCC HTB-37; B16F10, mouse melanoma cells, ATCC CRL-6475) were plated at a density of 5,000 cells/well (DU145, HeLa-MaTu-ADR), 3,000 cells/well (NCI-H460, HeLa), 2,500 cells/well (A2780), 1,500 cells/well (Caco-2), or 1,000 cells/well (B16F10) in a 96-well multititer plate in 200 μL of their respective growth medium supplemented 10% fetal calf serum. After 24 hours, the cells of one plate (zero-point plate) were stained with crystal violet (see below), while the medium of the other plates was replaced by fresh culture medium (200 μl), to which the test substances were added in various concentrations (0 μM, as well as in the range of 0.001-10 μM; the final concentration of the solvent dimethyl sulfoxide was 0.5%). The cells were incubated for 4 days in the presence of test substances. Cell proliferation was determined by staining the cells with crystal violet: the cells were fixed by adding 20 μl/measuring point of an 11% glutaric aldehyde solution for 15 minutes at room temperature. After three washing cycles of the fixed cells with water, the plates were dried at room temperature. The cells were stained by adding 100 μl/measuring point of a 0.1% crystal violet solution (pH 3.0). After three washing cycles of the stained cells with water, the plates were dried at room temperature. The dye was dissolved by adding 100 μl/measuring point of a 10% acetic acid solution. The extinction was determined by photometry at a wavelength of 595 nm. The change of cell number, in percent, was calculated by normalization of the measured values to the extinction values of the zero-point plate (=0%) and the extinction of the untreated (0 μm) cells (=100%). The IC50 values (inhibitory concentration at 50% of maximal effect) were determined by means of a 4 parameter fit. Non-adherent MOLM-13 human acute myeloid leukemia cells (DSMZ ACC 554) were seeded at a density of 5,000 cells/well in a 96-well multititer plate in 100 μL of growth medium supplemented 10% fetal calf serum. After 24 hours, cell viability of one plate (zero-point plate) was determined with the Cell Titre-Glo Luminescent Cell Viability Assay (Promega), while 50 μL of test compound containing medium was added to the wells of the other plates (final concentrations in the range of 0.001-10 μM and DMSO controls; the final concentration of the solvent dimethyl sulfoxide was 0.5%). Cell viability was assessed after 72-hour exposure with the Cell Titre-Glo Luminescent Cell Viability Assay (Promega).

[3] = system: HeLa-MaTu-ADR, multidrug-resistant human cervical carcinoma cells; test: Proliferation assay, HeLa-MaTu-ADR (crystal violet); assay type: cell-based; details: 4 days, read-out: Inhibition of HeLa-MaTu-ADR cell proliferation IC50
Method: as §1

[4] = system: Caco-2, human colorectal carcinoma cells; test: Proliferation assay, Caco-2 (crystal violet); assay type: cell-based; details: Caco-2, 4 days, read-out: Inhibition of Caco-2 cell proliferation IC50
Method: as §1

[5] = system: B16F10, mouse melanoma cells; test: Proliferation assay, B16F10 (crystal violet); assay type: cell-based; details: B16F10, 4 days, read-out: Inhibition of B16F10 cell proliferation IC50
Method: as §1

[6] = system: MOLM-13 human acute myeloid leukemia cells; test: Proliferation assay, MOLM-13 (Cell Titre-Glo); assay type: cell-based; details: MOLM-13, 72-hour exposure, read-out: Inhibition of MOLM-13 cell proliferation IC50
Method: as §1

Row | SMILES | IC50 [1] [nM] | IC50 ([2]; Homo sapiens, 96 h) [nM] | IC50 ([3]; Homo sapiens, 96 h) [nM] | IC50 ([4]; Homo sapiens, Caco-2, 96 h) [nM] | IC50 ([5]; Mus musculus, B16-F10, 96 h) [nM] | IC50 ([6]; Homo sapiens, MOLM-13, 72 h) [nM] | IC50 [2] [nM] | IC50 [3] [nM] | IC50 [4] [nM] | IC50 [5] [nM] | IC50 [6] [nM]
1 | CCOc1cc(F)ccc1-c1cc(Nc2cc(CS(C)(=N)=O)cc(F)n2)ncc1F (racemic) [Example 26, (rac)-4-(2-Ethoxy-4-fluorophenyl)-5-fluoro-N-{6-fluoro-4-[(S-methylsulfonimidoyl)methyl]pyridin-2-yl}pyridin-2-amine] | 110 | 43 | 49 | 86 | 150 | 44 | – | – | – | – | –
2 | COc1cc(F)ccc1-c1cc(Nc2cc(CS(C)(=O)=NC#N)ccn2)ncc1F (single isomer, unassigned) [Example 10, {[(2-{[5-Fluoro-4-(4-fluoro-2-methoxyphenyl)pyridin-2-yl]amino}pyridin-4-yl)methyl](methyl)oxido-λ^6-sulfanylidene}cyanamide] | 72 | 31 | 32 | 38 | 63 | 12 | – | – | – | – | –
3 | COc1cc(F)ccc1-c1cc(Nc2cc(CS(C)(=N)=O)ccn2)ncc1F (single isomer, unassigned; (+)) [Example 2, (+)-5-Fluoro-4-(4-fluoro-2-methoxyphenyl)-N-{4-[(S-methylsulfonimidoyl)methyl]pyridin-2-yl}pyridin-2-amine] | 360 | – | – | – | – | 29 | 110 | 33 | 62 | 240 | –
4 | COc1cc(F)ccc1-c1cc(Nc2cc(CS(C)(=N)=O)cc(C)n2)ncc1F (single isomer, unassigned; (+)) [Example 32, (+)-5-Fluoro-4-(4-fluoro-2-methoxyphenyl)-N-{6-methyl-4-[(S-methylsulfonimidoyl)methyl]pyridin-2-yl}pyridin-2-amine] | 120 | 31 | 53 | 40 | 98 | 17 | – | – | – | – | –
5 | COc1cc(F)ccc1-c1cc(Nc2cc(CS(C)(=N)=O)ccn2)ncc1F (single isomer, unassigned; (-)) [Example 3, (−)-5-Fluoro-4-(4-fluoro-2-methoxyphenyl)-N-{4-[(S-methylsulfonimidoyl)methyl]pyridin-2-yl}pyridin-2-amine] | 240 | – | – | – | – | – | 100 | 37 | 58 | 310 | 40

Results, then the compound that gave them:

Row | IC50 [1] [nM] | IC50 ([2]; Homo sapiens, 96 h) [nM] | IC50 ([3]; Homo sapiens, 96 h) [nM] | IC50 ([4]; Homo sapiens, Caco-2, 96 h) [nM] | IC50 ([5]; Mus musculus, B16-F10, 96 h) [nM] | IC50 ([6]; Homo sapiens, MOLM-13, 72 h) [nM] | IC50 [2] [nM] | IC50 [3] [nM] | IC50 [4] [nM] | IC50 [5] [nM] | IC50 [6] [nM] | SMILES
6 | 49 | 46 | 33 | 57 | 67 | 20 | – | – | – | – | – | COc1cc(F)ccc1-c1cc(Nc2cc(CS(C)(=N)=O)cc(F)n2)ncc1F (racemic) [Example 17, (rac)-5-Fluoro-4-(4-fluoro-2-methoxyphenyl)-N-{6-fluoro-4-[(S-methylsulfonimidoyl)methyl]pyridin-2-yl}pyridin-2-amine]
7 | 11 | 29 | 30 | 32 | 38 | 17 | – | – | – | – | – | COc1cc(F)ccc1-c1cc(Nc2cc(CS(C)(=N)=O)cc(C(F)(F)F)n2)ncc1F (racemic) [Example 21, (rac)-5-Fluoro-4-(4-fluoro-2-methoxyphenyl)-N-{4-[(S-methylsulfonimidoyl)methyl]-6-(trifluoromethyl)pyridin-2-yl}pyridin-2-amine]
8 | 18 | 30 | 30 | 38 | 51 | 10 | – | – | – | – | – | COc1cc(F)ccc1-c1cc(Nc2cc(CS(C)(=N)=O)cc(C(F)(F)F)n2)ncc1F (single isomer, unassigned; (+)) [Example 22, (+)-5-Fluoro-4-(4-fluoro-2-methoxyphenyl)-N-{4-[(S-methylsulfonimidoyl)methyl]-6-(trifluoromethyl)pyridin-2-yl}pyridin-2-amine]
9 | 22 | – | – | – | – | – | 30 | 30 | 34 | 47 | 10 | COc1cc(F)ccc1-c1cc(Nc2cc(CS(C)(=N)=O)cc(C(F)(F)F)n2)ncc1F (single isomer, unassigned; (-)) [Example 23, (−)-5-Fluoro-4-(4-fluoro-2-methoxyphenyl)-N-{4-[(S-methylsulfonimidoyl)methyl]-6-(trifluoromethyl)pyridin-2-yl}pyridin-2-amine]
10 | 67 | – | – | – | – | – | 19 | 27 | 30 | 54 | 23 | COc1cc(F)ccc1-c1cc(Nc2cc(CS(C)(=N)=O)cc(C)n2)ncc1F (single isomer, unassigned; (-)) [Example 33, (−)-5-Fluoro-4-(4-fluoro-2-methoxyphenyl)-N-{6-methyl-4-[(S-methylsulfonimidoyl)methyl]pyridin-2-yl}pyridin-2-amine]
